Consider 1 compound from patent US9290427B2, “Anti-invasive compounds” (Universiteit Gent, priority 2012, dated 2016).

The test system of one experiment is MCF-7/6 cells. As to the kind of experiment: MTT test, MCF-7/6. It counts as cell-based, human. The note with it: for decrease in mitochondrial activity: FIG. 5. The method, then: (§1) An MTT test provides an indication of cell viability, proliferation and activity through determination of the mitochondrial conversion of 3-(4,5-dimethylthiazol-2-yl)-2,5-diphenyltetrazolium bromide (MTT), a yellow salt, into formazan, a salt that precipitates under the form of blue crystals.
(§2) In concreto, 5,000 cells are seeded in a cup of a 96 well-plate, treated with the desired amount of the test substance, and incubated for a chosen period of time. Next, 40 μL of a filtered (0.2 μm) 5 mg·mL^−1 solution of MTT in PBS is added to the cup. After 2 h of incubation at 37° C. in the dark, all liquid is removed. The obtained formazan salts are dissolved in 200 μL of DMSO, whereupon optical density is measured at 490 nm.
The effects of some chalcone-like compounds on the proliferation of MCF-7/6 cells were investigated. A commonly used method to quantify the metabolic activity of cells and thus to a certain degree cell viability—is the MTT assay. This test provides a measure of mitochondrial activity, as it assesses the reduction of 3-(4,5-dimethylthiazol-2-yl)-2,5-diphenyltetrazolium bromide (MTT), a yellow tetrazole, to the purple formazan; this transformation occurs in the mitochondria of living cells (Mosmann T., 1983).
Thus, the influence of 13 compounds on the mitochondrial activity of MCF-7/6 cells was determined at 3 different concentrations, both after 24 and 48 h of incubation. Assessment of the mitochondrial activity after 192 h of incubation, which would correspond to the duration of the CHI assay, was not possible as the degree of confluence of the cells was too high at that time point.
The antiproliferative effects of 4-fluoro-3′,4′,5′-trimethoxychalcone on MCF-7/6 cells were further assessed in the MTT assay upon prolonged incubation, as this would provide a higher degree of relevance to the CHI assay, which has an 8-day incubation period. As mentioned above, cell confluence was too high after 192 h; therefore, an incubation time of 144 h was considered a good compromise.
For orientation: Formazan colour is commonly taken as a measure of viable cells.

A further experiment has as its system MCF-7/LucF5 cells. Briefly: MTT test, MCF-7/LucF5. It counts as cell-based, human. The procedure: as §1, §2
In order to further validate the use of the MCF-7/LucF5 cells in our in vivo experiments, the effects of 4-fluoro-3′,4′,5′-trimethoxychalcone on this cell line in the MTT and SRB assays were determined as well (Van Hoorde L. et al., 1999).

Setting [1] is: elevated concentrations 10-100 μmol·L−1, summary.

Turning to `COc1cc(C(=O)/C=C/c2ccc(F)cc2)cc(OC)c1OC` [Compound 49, (2E)-3-(4-Fluorophenyl)-1-(3,4,5-trimethoxyphenyl)propenone], the “mitochondrial activity relative to solvent control” value is “increased significantly” with MCF-7/6 cells (0.1 μmol·L−1, FIG. 6); “significant reduction” with MCF-7/6 cells (100 and 10 μmol·L−1, FIG. 6 (72 and 144 h), p<0.01). In addition, the mitochondrial activity result in the experiment on MCF-7/6 cells (1 μmol·L−1, 24 h) was “the same trend, but without significance”; in the experiment with MCF-7/LucF5 cells (0.1 μmol·L−1, 72 h (p=0.0196)), “significant reduction”; with MCF-7/LucF5 cells (100 and 10 μmol·L−1, 72 and 144 h) it was “significant reduction”. Moreover, the “decrease in mitochondrial activity” value in the experiment with MCF-7/6 cells (5 μmol·L−1, 24 h) turned out to be 35%; with MCF-7/6 cells (5 μmol·L−1, 48 h) it was 25%. Besides, the “reduction in mitochondrial activity” value in the experiment with MCF-7/6 cells (10 μmol·L−1, 24 h) is listed as 40%; in the experiment on MCF-7/6 cells (setting [1]), roughly 50%; in the experiment with MCF-7/LucF5 cells (setting [1]) it was roughly 50%. Besides, in the experiment with MCF-7/LucF5 cells (0.1 μmol·L−1, 144 h), the “viability (mitochondrial activity)” value is on record as “restoration of viability to the control level”.
